According to patent US6929935B2, “Gluconobacter oxydans 2-ketoreductase enzyme and applications thereof” (Bristol-Myers Squibb Company, priority 2001, dated 2005):

System: G. oxydans 2-ketoreductase
Assay: Reduction of alkylketones with extract of E. coli expressing recombinant 2-ketoreductase, analysed by gas chromatography
Assay type: biochemical, Gluconobacter oxydans
Settings: NAD+/formate/formate dehydrogenase, 28° C., 16 hr; for % Conversion: 2 mg 2-ketone, 0.5 ml E. coli pBMS2000-KR extract, ketone to 2-alcohol
Protocol: Analysis of enantiomeric alcohols by gas chromatography: Samples were extracted in ethyl acetate and dried over anhydrous magnesium sulfate. Samples were then applied onto a Astec Chiraldex G-TA, gamma cyclodextrin column (20 m×0.25 mm×0.125 μm thickness; Astec, Whippany, N.J.) equipped with a guard column (Hewlett-Packard Ultra II, 5% phenyl methyl silicone, 5 m×0.32 mm×0.17 μm thickness; Agilent Technologies, Palo Alto, Calif.). The temperature of the injector was set at 150° C. and the detector of the chromatograph (Hewlett-Packard 5890) was set at 200° C. Detection was carried out with a flame ionization detector (Agilent Technologies). The separation was carried out by a gradient under the following conditions: 28° C. for 15 minutes, 5° C./min to 50° C. and hold 5 minutes. The helium flow rate was maintained at 22 cm/min. Under these conditions, the retention times for S-2-pentanol, R-2-pentanol, and 2-pentanone were 10.85, 11.67 and 17.84 minutes respectively.
The reaction contained 0.18 mg NAD+, 30 mg sodium formate, 0.3 units formate dehydrogenase (Sigma, St. Louis, Mo.), 2 mg 2-pentanone, and 0.5 ml of extract from an E. coli (BL21(DE3)) culture containing the pBMS2000-KR plasmid and expressing the ketoreductase. Alternatively, P. pastoris formate dehydrogenase (see S. Goldberg et al.: U.S. Provisional Patent Application Ser. No. 60/341,934 filed Dec. 19, 2001; U.S. Provisional Application Ser. No. 60/375,530 filed Apr. 25, 2002; and U.S. patent application Ser. No. 10/320,300; the contents of which are hereby incorporated by reference in their entirety) can be substituted for the commercial formate dehydrogenase. Cell extracts were obtained as follows: 2 g recombinant cells was suspended in 10 ml Buffer A (50 mM Tris-HCl, pH 7.5, 1 mM CaCl2, and 1 mM MgCl2). The resuspended cells were sonicated for 2 min (20 sec pulse “on” and 30 sec pulse “off”) using Model 550 Sonic Dismembrator (Misonix Inc., Farmingdale, N.Y.). The resulting mixture was centrifuged for 15 min at 8000 rpm at 4° C. The supernatant was removed and used for reduction reactions. The reactions were carried out in a culture tube at 28° C. with shaking at 200 rpm. After 16 hr, samples were quenched with 2 ml of ethyl acetate and analyzed by gas chromatography (described earlier).
The reactions contained 0.18 mg NAD+, 30 mg sodium formate, 0.3 units formate dehydrogenase (purchased from Sigma), 2 mg 2-ketones, and 0.5 ml of extract from the E. coli culture containing the pBMS2000-KR plasmid and expressing the ketoreductase (described above). The reactions were carried out in a culture tube at 28° C. on a shaker at 200 rpm. The end of 16 hr, samples were quenched with 2 ml of ethyl acetate and analyzed by gas chromatography (described earlier).

CCCCCCCCC(C)=O [2-Decanone]
% Conversion: >98%

CCCCCC(C)=O [2-Heptanone]
% Conversion: >98%

CCCCCCC(C)=O [2-Octanone]
% Conversion: >98%

CCCC(C)=O [2-pentanone]
reduction of the substrate to 2-pentanol using recombinant enzyme (2 mg substrate, 0.5 ml E. coli BL21(DE3) pBMS2000-KR extract): complete reduction
